Experimental data: patent EP4007561B1, “PREVENTION AND REDUCTION OF CORNIFICATION DISORDERS AND RELATED COSMETIC AGENTS” (Merck Patent GmbH, priority 2019, dated 2021)
Values joined by “and” are separate entries in the source; they are usually repeats but may differ in a detail not shown here. Equal values may be shown once.

Experiments:
Format in all cases: cell-based, human
LAMP2A = test: Fluorescence imaging (immunostaining) of protein expression on skin explants ex vivo; conditions: ectoine 0.2% w/v; basal conditions (without UV-A); Figure 3
Method: (§1) To evidence changes at the expression level of a selected pool of proteins on skin explants (ex vivo), treated or not with ectoine 0.2% (source Merck KGaA. Darmstadt, Germany) and exposed or not to UV-A irradiation: At day 0 (D0), the skin explants from a donor (phototype III, ref. EXP001100F022) are kept alive in calcium-free DMEM (Dulbecco's modified Eagle medium), with 10% FCS (Fetal calf serum), at 37°C and humid atmosphere, supplemented with 5% CO2. On day 1 (D1), ectoine 0.2% w/v) is obtained by dilution in H2O. The experimental groups are incubated for 24 hours with the active prior to irradiation.
(§2) On day 2 (D2), a stress induced by irradiation with UV-A (LED source, peak at 365 nm at a 480J/cm^2 during 40 minutes) is applied to the explants.
(§3) Skin explants are previously treated or not with ectoine and irradiated or not with UV-A, cryo-preserved in OCT (an embedding resin (Shandon Cryomatrix; Thermo Scientific, Reference 6769006)), flash-frozen in isopetan/liquid nitrogen and stored at -80 °C.
(§4) Tissue sections of 5 µm are cut by using a cryotome, air-dried at room temperature (RT) for 15 minutes and fixed with a mix of 95% ethanol/5% acetic acid for 5 minutes. Fixed tissues are then saturated with 5% BSA (bovine serum albumin) in PBS (Phosphate Buffered Saline; 1X, pH 7.4) at RT. […]

Filaggrin = test: as above; conditions: ectoine 0.2% w/v, 24 hours prior to UV-A irradiation (365 nm, 480J/cm^2, 40 minutes); Figure 2
Method: as §1, §2, §3, §4

skin explants = test: Protein oxidation (carbonylation) by differential in-gel electrophoresis proteomics, unidentified spots and overall spot pattern; conditions: for Average normalized volume (oxidation level): UV-A + Ectoine 0.2%, UV-A 365 nm, 480J/cm2, 40 min
Method: To assess and quantify protein oxidation (carbonylation) by differential in-gel electrophoresis proteomics approach evidencing differentially oxidized protein spots upon UV-A (365 nm) irradiation on skin explants in the presence or absence of ectoine (0,2%) (source Merck KGaA, Darmstadt, Germany).
During the study human explants are irradiated under UVA (LED source; sources and chamber manufactured for custom needs by UWAVE;France, peak at 365nm at a 480J/cm2 dose during 40 min). A solution of N-acetylcysteine (Reference A7250, Sigma-Aldrich) is used as positive control of protection. Just after irradiation, explants are snap-frozen and proteins extracted for analyses.
Protein extraction from explants is performed using a commercial kit (Total Protein Extraction Kit, Merck KGaA) protocol for skin explants. Extracted proteins are quantified by the Bradford method and split into equal amounts for analyses. The samples are analyzed for carbonylated proteins after they are labeled with fluorescent probes functionalized to selectively react with carbonyl groups. The fluorescent labeling of carbonyls is obtained by the reaction with amine-N-oxyl functionalized fluorophore (custom synthetized) and formation of a stable covalent bond.
Thus, the samples are labeled with two different fluorescent dyes characterized by different excitation and emission wavelength peaks: CF®555 (Source :Biotium) is a red fluorescent dye spectrally similar to Cy3® and Alexa Fluor® 555 (λex547nm/λem572nm) and CF®647 (Source: Biotium) CF®647is a far-red fluorescent dye spectrally similar to Cy®5 and Alexa Fluor® 647 (λex639nm/λem668nm). This approach allows to load two distinct labeled samples in the same bi-dimensional electrophoresis gel and to analyze them independently.
Moreover, 50 µg of proteins of each sample are pooled and labeled a third fluorescent probe CF®488 (Source: Biotium) (λex483nm/λem508nm). CF®488 is a green fluorescent dye spectrally similar to Alexa Fluor® 488. CF®488 is and used as Internal Standard (IS) for inter-gel normalization. After specific fluorescent labeling, carbonylated proteins are separated by bi-dimensional electrophoresis and the fluorescence images are obtained for each specifically labeled sample.
The first dimension of protein separation (isoelectric focusing) is performed using gel-strips with nonlinear pH 3 to 11 while the second step of electrophoresis separation is conducted by SDS-PAGE using 4%-20% w/v gradient polyacrylamide gels. The digital acquisition of gel images is performed by using the «Ettan DIGE imager» system (GE Healthcare). Data treatment is performed with the software «Progenesis SameSpots» (Nonlinear Dynamics, UK).
Carbonylated proteins are presented as superposed images of two independent fluorescent signals (in green or red) and the coincident proteins with equivalent intensity result in yellow spots by superposition of the two dye colors used for their labeling (superposition of green and red colors). The carbonylated proteins that are present in a different level in the two samples on gel are visualized as red or green spots depending by the experimental group as independent labeling of each sample.
More than 200 spots are detected per sample, with an increase in number and intensity in the samples of the irradiated group (UV-A). These spots are localized between 37 kDa and 75 kDa. The fluorescence signal of each spot is normalized over the internal standard spot signal for each gel. The alignment of spots from different gels and the analysis of variance of their carbonylation levels in different samples and in different groups are performed by using the software Progenesis Samespots.

SMILES: CC1=N[C@H](C(=O)O)CCN1 [Ectoine, (S)-1,4,5,6-tetrahydro-2-methyl-4-pyrimidincarboxylic acid]
- LAMP2A expression (LAMP2A): increases LAMP2A expression
- Filaggrin expression level (Filaggrin): prevents this decrease of Filaggrin
- Average normalized volume (oxidation level) (skin explants; Spot 100 (protein not identified), n=4): → 1.129
- Average normalized volume (oxidation level) (skin explants; Spot 203 (protein not identified), n=4): → 1.062
- Average normalized volume (oxidation level) (skin explants; Spot 230 (protein not identified), n=4): → 1.433
- level of oxidation of protein spots in the absence of irradiation (skin explants; basal conditions, no UV-A, spots different from those protected from UV-A stress (except spot 100)): decreases the level of oxidation of ten protein spots
- protein carbonylation after ectoine treatment, spots 100, 230, 203 (skin explants; ectoine 0.2%, UV-A irradiation, n=4): carbonylation is not reduced
- protection of protein spots from UV-A induced oxidation (carbonylation) (skin explants; ectoine 0.2%, of 8 spots increased by UV-A, spots 186, 133, 184, 185, 206, n=4): five spots are detected as protected and 5 proteins exhibit reduced protein carbonylation and prevents protein carbonylation significantly
